US12384797B2, “Thioeno[3,2-b] pyridin-7-amine compounds for treating familial dysautonomia” (PTC THERAPEUTICS, INC., priority 2019, dated 2025)

Tested on: Elongator complex protein 1 (ELP1, also referred to as IKBKAP)
Assay: IKBKAP-HTRF assay (IKBKAP protein in lysates of FD patient-derived fibroblasts)
Type: cell-based, human
Conditions: 48 hours incubation, 7-point concentration curve
Outline: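 FD patient-derived fibroblasts (10,000/well) were treated 48 h at 37 °C with a 7-point, 3.16-fold compound series in triplicate, then lysed. IKBKAP was read by sandwich HTRF (donor/acceptor anti-IKAP antibodies, overnight at 4 °C, 665/620 nm). MFI is ΔF over vehicle ΔF; EC2x is the concentration giving twice the vehicle IKBKAP level.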

## N[C@@H](CCF)Cc1sc2c(NCc3ccco3)cc(Cl)nc2c1Br [Compound 97, 2-[(2S)-2-amino-4-fluorobutyl]-3-bromo-5-chloro-N-[(furan-2-yl)methyl]thieno[3,2-b]pyridin-7-amine]
  EC2x for IKBKAP protein expression (concentration producing two times the amount of IKBKAP protein vs DMSO vehicle control): ***** (≤0.005 μM is indicated by five stars (*****))
  MFI (maximum fold increase in IKBKAP protein abundance relative to the vehicle control): ***** (>4.9 is indicated by five stars (*****))

## N[C@@H](CCF)Cc1sc2c(NCc3cccs3)cc(Cl)nc2c1Cl [Compound 98, 2-[(2S)-2-amino-4-fluorobutyl]-3,5-dichloro-N-[(thiophen-2-yl)methyl]thieno[3,2-b]pyridin-7-amine]
  EC2x for IKBKAP protein expression (concentration producing two times the amount of IKBKAP protein vs DMSO vehicle control): ***** (≤0.005 μM is indicated by five stars (*****))
  MFI (maximum fold increase in IKBKAP protein abundance relative to the vehicle control): ***** (>4.9 is indicated by five stars (*****))

## Cc1c(C[C@@H](N)CCF)sc2c(NCc3nccs3)cc(Cl)nc12 [Compound 99, 2-[(2S)-2-amino-4-fluorobutyl]-5-chloro-3-methyl-N-[(1,3-thiazol-2-yl)methyl]thieno[3,2-b]pyridin-7-amine]
  EC2x for IKBKAP protein expression (concentration producing two times the amount of IKBKAP protein vs DMSO vehicle control): ***** (≤0.005 μM is indicated by five stars (*****))
  MFI (maximum fold increase in IKBKAP protein abundance relative to the vehicle control): ***** (>4.9 is indicated by five stars (*****))

## N[C@@H](CCO)Cc1sc2c(NCc3ccccc3F)cc(Cl)nc2c1Br [Compound 100, (3S)-3-amino-4-(3-bromo-5-chloro-7-{[(2-fluorophenyl)methyl]amino}thieno[3,2-b]pyridin-2-yl)butan-1-ol]
  EC2x for IKBKAP protein expression (concentration producing two times the amount of IKBKAP protein vs DMSO vehicle control): ***** (≤0.005 μM is indicated by five stars (*****))
  MFI (maximum fold increase in IKBKAP protein abundance relative to the vehicle control): ***** (>4.9 is indicated by five stars (*****))

## C[C@H](N)Cc1sc2c(NCc3cccs3)cc(C#N)nc2c1Br [Compound 101, 2-[(2S)-2-aminopropyl]-3-bromo-7-{[(thiophen-2-yl)methyl]amino}thieno[3,2-b]pyridine-5-carbonitrile]
  EC2x for IKBKAP protein expression (concentration producing two times the amount of IKBKAP protein vs DMSO vehicle control): ***** (≤0.005 μM is indicated by five stars (*****))
  MFI (maximum fold increase in IKBKAP protein abundance relative to the vehicle control): ***** (>4.9 is indicated by five stars (*****))

## C[C@H](N)Cc1sc2c(NCc3cccs3)cc(C#N)nc2c1C#N [Compound 102, 2-[(2S)-2-aminopropyl]-7-{[(thiophen-2-yl)methyl]amino}thieno[3,2-b]pyridine-3,5-dicarbonitrile]
  EC2x for IKBKAP protein expression (concentration producing two times the amount of IKBKAP protein vs DMSO vehicle control): ***** (≤0.005 μM is indicated by five stars (*****))
  MFI (maximum fold increase in IKBKAP protein abundance relative to the vehicle control): ***** (>4.9 is indicated by five stars (*****))

## N#CC[C@H](N)Cc1sc2c(NCc3ccco3)cc(Cl)nc2c1Br [Compound 103, (3S)-3-amino-4-(3-bromo-5-chloro-7-{[(furan-2-yl)methyl]amino}thieno[3,2-b]pyridin-2-yl)butanenitrile]
  EC2x for IKBKAP protein expression (concentration producing two times the amount of IKBKAP protein vs DMSO vehicle control): **** (between >0.005 μM and ≤0.02 μM is indicated by four stars (****))
  MFI (maximum fold increase in IKBKAP protein abundance relative to the vehicle control): **** (between >3.9 and ≤4.9 is indicated by four stars (****))

## CSC[C@H](N)Cc1sc2c(NCc3ccco3)cc(Cl)nc2c1C [Compound 104, 2-[(2R)-2-amino-3-(methylsulfanyl)propyl]-5-chloro-N-[(furan-2-yl)methyl]-3-methylthieno[3,2-b]pyridin-7-amine]
  EC2x for IKBKAP protein expression (concentration producing two times the amount of IKBKAP protein vs DMSO vehicle control): ***** (≤0.005 μM is indicated by five stars (*****))
  MFI (maximum fold increase in IKBKAP protein abundance relative to the vehicle control): ***** (>4.9 is indicated by five stars (*****))

## Cc1c(C[C@@H](N)CC#N)sc2c(NCc3cccs3)cc(Cl)nc12 [Compound 105, (3S)-3-amino-4-(5-chloro-3-methyl-7-{[(thiophen-2-yl)methyl]amino}thieno[3,2-b]pyridin-2-yl)butanenitrile]
  EC2x for IKBKAP protein expression (concentration producing two times the amount of IKBKAP protein vs DMSO vehicle control): ***** (≤0.005 μM is indicated by five stars (*****))
  MFI (maximum fold increase in IKBKAP protein abundance relative to the vehicle control): ***** (>4.9 is indicated by five stars (*****))

## N#CC[C@H](N)Cc1sc2c(NCc3cccs3)cc(Cl)nc2c1Cl [Compound 106, (3S)-3-amino-4-(3,5-dichloro-7-{[(thiophen-2-yl)methyl]amino}thieno[3,2-b]pyridin-2-yl)butanenitrile]
  EC2x for IKBKAP protein expression (concentration producing two times the amount of IKBKAP protein vs DMSO vehicle control): ***** (≤0.005 μM is indicated by five stars (*****))
  MFI (maximum fold increase in IKBKAP protein abundance relative to the vehicle control): ***** (>4.9 is indicated by five stars (*****))

## N[C@H](Cc1sc2c(NCc3cccs3)cc(Cl)nc2c1Br)CC(F)F [Compound 107, 2-[(2S)-2-amino-4,4-difluorobutyl]-3-bromo-5-chloro-N-[(thiophen-2-yl)methyl]thieno[3,2-b]pyridin-7-amine]
  EC2x for IKBKAP protein expression (concentration producing two times the amount of IKBKAP protein vs DMSO vehicle control): ***** (≤0.005 μM is indicated by five stars (*****))
  MFI (maximum fold increase in IKBKAP protein abundance relative to the vehicle control): ***** (>4.9 is indicated by five stars (*****))

## Cc1c(C[C@@H](N)CS(C)(=O)=O)sc2c(NCc3ccco3)cc(Cl)nc12 [Compound 108, 2-[(2R)-2-amino-3-(methanesulfonyl)propyl]-5-chloro-N-[(furan-2-yl)methyl]-3-methylthieno[3,2-b]pyridin-7-amine]
  EC2x for IKBKAP protein expression (concentration producing two times the amount of IKBKAP protein vs DMSO vehicle control): **** (between >0.005 μM and ≤0.02 μM is indicated by four stars (****))
  MFI (maximum fold increase in IKBKAP protein abundance relative to the vehicle control): ***** (>4.9 is indicated by five stars (*****))

## C[C@H](N)Cc1sc2c(NCc3ccco3)cc(Cl)nc2c1C#N [Compound 109, 2-[(2S)-2-aminopropyl]-5-chloro-7-{[(furan-2-yl)methyl]amino}thieno[3,2-b]pyridine-3-carbonitrile]
  EC2x for IKBKAP protein expression (concentration producing two times the amount of IKBKAP protein vs DMSO vehicle control): ***** (≤0.005 μM is indicated by five stars (*****))
  MFI (maximum fold increase in IKBKAP protein abundance relative to the vehicle control): ***** (>4.9 is indicated by five stars (*****))

## C[C@H](N)Cc1sc2c(NCc3cccs3)cc(Cl)nc2c1C#N [Compound 110, 2-[(2S)-2-aminopropyl]-5-chloro-7-{[(thiophen-2-yl)methyl]amino}thieno[3,2-b]pyridine-3-carbonitrile]
  EC2x for IKBKAP protein expression (concentration producing two times the amount of IKBKAP protein vs DMSO vehicle control): ***** (≤0.005 μM is indicated by five stars (*****))
  MFI (maximum fold increase in IKBKAP protein abundance relative to the vehicle control): **** (between >3.9 and ≤4.9 is indicated by four stars (****))

## Cc1c(C[C@@H](N)CC#N)sc2c(NCc3ccco3)cc(Cl)nc12 [Compound 111, (3S)-3-amino-4-(5-chloro-7-{[(furan-2-yl)methyl]amino}-3-methylthieno[3,2-b]pyridin-2-yl)butanenitrile]
  EC2x for IKBKAP protein expression (concentration producing two times the amount of IKBKAP protein vs DMSO vehicle control): **** (between >0.005 μM and ≤0.02 μM is indicated by four stars (****))
  MFI (maximum fold increase in IKBKAP protein abundance relative to the vehicle control): ***** (>4.9 is indicated by five stars (*****))

## C[C@H](N)Cc1sc2c(NCc3cccs3)cc(C#N)nc2c1Cl [Compound 112, 2-[(2S)-2-aminopropyl]-3-chloro-7-{[(thiophen-2-yl)methyl]amino}thieno[3,2-b]pyridine-5-carbonitrile]
  EC2x for IKBKAP protein expression (concentration producing two times the amount of IKBKAP protein vs DMSO vehicle control): ***** (≤0.005 μM is indicated by five stars (*****))
  MFI (maximum fold increase in IKBKAP protein abundance relative to the vehicle control): ***** (>4.9 is indicated by five stars (*****))

## CS(=O)(=O)C[C@H](N)Cc1sc2c(NCc3ccco3)cc(Cl)nc2c1Cl [Compound 113, 2-[(2R)-2-amino-3-(methanesulfonyl)propyl]-3,5-dichloro-N-[(furan-2-yl)methyl]thieno[3,2-b]pyridin-7-amine]
  EC2x for IKBKAP protein expression (concentration producing two times the amount of IKBKAP protein vs DMSO vehicle control): **** (between >0.005 μM and ≤0.02 μM is indicated by four stars (****))
  MFI (maximum fold increase in IKBKAP protein abundance relative to the vehicle control): ***** (>4.9 is indicated by five stars (*****))

## CSC[C@H](N)Cc1sc2c(NCc3ccco3)cc(Cl)nc2c1Cl [Compound 114, 2-[(2R)-2-amino-3-(methylsulfanyl)propyl]-3,5-dichloro-N-[(furan-2-yl)methyl]thieno[3,2-b]pyridin-7-amine]
  EC2x for IKBKAP protein expression (concentration producing two times the amount of IKBKAP protein vs DMSO vehicle control): ***** (≤0.005 μM is indicated by five stars (*****))
  MFI (maximum fold increase in IKBKAP protein abundance relative to the vehicle control): ***** (>4.9 is indicated by five stars (*****))

## Cc1c(C[C@@H](N)C(=O)O)sc2c(NCc3ccco3)cc(Cl)nc12 [Compound 115, 3-(5-chloro-7-{[(furan-2-yl)methyl]amino}-3-methylthieno[3,2-b]pyridin-2-yl)-D-alanine]
  EC2x for IKBKAP protein expression (concentration producing two times the amount of IKBKAP protein vs DMSO vehicle control): ***** (≤0.005 μM is indicated by five stars (*****))
  MFI (maximum fold increase in IKBKAP protein abundance relative to the vehicle control): ***** (>4.9 is indicated by five stars (*****))

## Cc1c(C[C@@H](N)C(=O)N(C)C)sc2c(NCc3ccco3)cc(Cl)nc12 [Compound 116, 3-(5-chloro-7-{[(furan-2-yl)methyl]amino}-3-methylthieno[3,2-b]pyridin-2-yl)-N,N-dimethyl-D-alaninamide]
  EC2x for IKBKAP protein expression (concentration producing two times the amount of IKBKAP protein vs DMSO vehicle control): **** (between >0.005 μM and ≤0.02 μM is indicated by four stars (****))
  MFI (maximum fold increase in IKBKAP protein abundance relative to the vehicle control): ***** (>4.9 is indicated by five stars (*****))
